Measured values from US6013618A, “Perfumes having odor longevity benefits” (Procter & Gamble Company, priority 1998, dated 2000).

Experiment: Fragrance Release Half-life: hydrolysis kinetics of pro-accords monitored by HPLC
Format: physicochemical
Details: 10 mL phosphate buffer (NaH2PO4/H3PO4, approximately pH 2.5) admixed with 90 mL dioxane, 30° C.
Description: Fragrance Release Half-life
The pro-accords useful in the perfume and fine flagrance compositions of the present invention generally have a delayed release of final fragrance accord in order to achieve the increased fragrance longevity benefits described herein. However, the pro-accords generally also deliver the fragrance accords during a time period useful to the formulator, for example, within a time period desirable to the consumer.
For the purposes of the present invention the pro-accords generally have a "Fragrance Release Half-life" of less than or equal to 12 hours when measured in NaH2 PO4 buffer at pH 2.5 and greater than or equal to 0.1 hour when measured in NaH2 PO4 buffer at pH 5.3. The "Fragrance Release Half-life" is defined herein as follows
Pro-accords deliver their corresponding mixture of fragrance raw materials or fragrance accords according to the equation: […]
wherein the accord which is released may be a binary accord or a multiple fragrance raw material accord.
The rate at which the accord is released is defined by the formula: […]
An example of the procedure used to measure the suitability of a pro-accord for use in the fragrance delivery systems at pH 2.5 is as follows. […] Next 10 mL of the phosphate buffer is admixed with 90 mL of dioxane and the pro-fragrance to be analyzed is added. The hydrolysis kinetics are then monitored by conventional HPLC at 30° C. […]

| SMILES | t1/2 (Fragrance Release Half-life) [h] |
| --- | --- |
| c1ccc(CCOC(OCCc2ccccc2)(OCCc2ccccc2)OCCc2ccccc2)cc1 [tetrakis(phenylethyl) orthocarbonate, Tetrakis(phenylethyl) Orthocarbonate] | 4.8 |
| c1ccc(CCOC(OCCc2ccccc2)OCCc2ccccc2)cc1 [tris(phenylethyl) orthoformate, Tris(phenylethyl) Orthoformate] | 5.9 |
